Structures can show the parent of a compound that is named as a salt.
Tested on: NCIH929.1 cells
Test: Cell viability assay (CellTiter-Glo 2.0, ATP quantification)
Assay type: cell-based
Conditions: NCIH929.1 cell viability, CellTiter-Glo 2.0, 96 hr incubation, top concentration 1 μM
How it was run: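 Cells seeded at 750/well in RPMI with 10% FBS and 0.05 mM 2-mercaptoethanol, exposed 96 h at 37 °C to 10-point half-log dilutions in duplicate, top 1 μM. Viability by CellTiter-Glo 2.0 ATP luminescence, with a day-0 read as cytostatic baseline (CT0).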

In the case of `O=C1CCC(N2C(=O)c3cccc(NCc4cnn(C5CCN(C(=O)OCC(F)(F)F)CC5)c4)c3C2=O)C(=O)N1` (stereo not drawn) [Compound 165, 4-(4-{[2-(2,6-Dioxo-piperidin-3-yl)-1,3-dioxo-2,3-dihydro-1H-isoindol-4-ylamino]-methyl}-pyrazol-1-yl)-piperidine-1-carboxylic acid 2,2,2-trifluoro-ethyl ester], the GI50 is reported as less than 100 nM.

In the case of `CC(C)(C)OC(=O)N1C2CCC1CC(n1cc(CNc3cccc4c3C(=O)N(C3CCC(=O)NC3=O)C4=O)cn1)C2` (stereo not drawn) [Compound 166, tert-Butyl 3-(4-(((2-(2,6-dioxopiperidin-3-yl)-1,3-dioxoisoindolin-4-yl)amino)methyl)-1H-pyrazol-1-yl)-8-azabicyclo[3.2.1]octane-8-carboxylate], the GI50 is reported as less than 100 nM.

For `CC(C)(C)OC(=O)N1CC2(CC(n3cc(CNc4cccc5c4C(=O)N(C4CCC(=O)NC4=O)C5=O)cn3)C2)C1` (stereo not drawn) [Compound 167, tert-Butyl 6-(4-(((2-(2,6-dioxopiperidin-3-yl)-1,3-dioxoisoindolin-4-yl)amino)methyl)-1H-pyrazol-1-yl)-2-azaspiro[3.3]heptane-2-carboxylate], the GI50 was less than 100 nM.

`CC1CC(n2cc(CNc3cccc4c3C(=O)N(C3CCC(=O)NC3=O)C4=O)cn2)CC(C)N1C(=O)OC(C)(C)C` (stereo not drawn) [Compound 168, tert-Butyl 4-(4-(((2-(2,6-dioxopiperidin-3-yl)-1,3-dioxoisoindolin-4-yl)amino)methyl)-1H-pyrazol-1-yl)-2,6-dimethylpiperidine-1-carboxylate] gave a GI50 of less than 100 nM.

For `CC(C)(C)OC(=O)N1CCC(n2cc(CNc3cccc4c3C(=O)N(C3CCC(=O)NC3=O)C4=O)cn2)CC1(C)C` (stereo not drawn) [Compound 169, tert-Butyl 4-(4-(((2-(2,6-dioxopiperidin-3-yl)-1,3-dioxoisoindolin-4-yl)amino)methyl)-1H-pyrazol-1-yl)-2,2-dimethylpiperidine-1-carboxylate], the GI50 was less than 1 nM.

Work on `O=C1CCC(N2C(=O)c3cccc(NCc4cnn([C@H]5CC[C@H](C(=O)N6CCCCC6)CC5)c4)c3C2=O)C(=O)N1` (stereo partly drawn) [Compound 170, 2-(2,6-Dioxopiperidin-3-yl)-4-(((1-((1r,4r)-4-(piperidine-1-carbonyl)cyclohexyl)-1H-pyrazol-4-yl)methyl)amino)isoindoline-1,3-dione] yielded a GI50 of less than 100 nM.

`Cc1nn(C2CCN(C(=O)C3(C)CCC3)CC2)c(C)c1CNc1cccc2c1C(=O)N(C1CCC(=O)NC1=O)C2=O` (stereo not drawn) [Compound 171, 4-(((3,5-Dimethyl-1-(1-(1-methylcyclobutane-1-carbonyl)piperidin-4-yl)-1H-pyrazol-4-yl)methyl)amino)-2-(2,6-dioxopiperidin-3-yl)isoindoline-1,3-dione] was tested, and the GI50 was less than 100 nM.

For `CC1(C(=O)N2CCC(c3ccccc3)(n3cc(CNc4cccc5c4C(=O)N(C4CCC(=O)NC4=O)C5=O)cn3)CC2)CCC1` (stereo not drawn) [Compound 172, 2-(2,6-Dioxopiperidin-3-yl)-4-(((1-(1-(1-methylcyclobutane-1-carbonyl)-4-phenylpiperidin-4-yl)-1H-pyrazol-4-yl)methyl)amino)isoindoline-1,3-dione], the GI50 was less than 100 nM.

Work on `CC1(C(=O)N2CCC(C)(n3cc(CNc4cccc5c4C(=O)N(C4CCC(=O)NC4=O)C5=O)cn3)CC2)CCC1` (stereo not drawn) [Compound 173, 2-(2,6-Dioxopiperidin-3-yl)-4-(((1-(4-methyl-1-(1-methylcyclobutane-1-carbonyl)piperidin-4-yl)-1H-pyrazol-4-yl)methyl)amino)isoindoline-1,3-dione] yielded a GI50 of less than 100 nM.

`CC(Nc1cccc2c1C(=O)N(C1CCC(=O)NC1=O)C2=O)c1cnn(C2CCN(C(=O)OC(C)(C)C)CC2)c1` (stereo not drawn) [Compound 174, tert-Butyl 4-(4-(1-((2-(2,6-dioxopiperidin-3-yl)-1,3-dioxoisoindolin-4-yl)amino)ethyl)-1H-pyrazol-1-yl)piperidine-1-carboxylate] was tested, and the GI50 was less than 100 nM.

`NC1(C(=O)N2CCC(n3cc(CNc4cccc5c4C(=O)N(C4CCC(=O)NC4=O)C5=O)cn3)CC2)CCC1` (stereo not drawn) [Compound 175, 4-[[1-[1-(1-aminocyclobutanecarbonyl)-4-piperidyl]pyrazol-4-yl]methylamino]-2-(2,6-dioxo-3-piperidyl)isoindoline-1,3-dione hydrochloride] gave a GI50 of less than 100 nM.

In the case of `CC(C)(C)OC(=O)N1CCC(n2cc(CNc3cccc4c3C(=O)N(C3CCC(=O)NC3=O)C4=O)cn2)C(F)(F)C1` (stereo not drawn) [Compound 176, tert-Butyl 4-(4-(((2-(2,6-dioxopiperidin-3-yl)-1,3-dioxoisoindolin-4-yl)amino)methyl)-1H-pyrazol-1-yl)-3,3-difluoropiperidine-1-carboxylate], the GI50 is reported as less than 100 nM.

For `O=C1CCC(N2C(=O)c3cccc(NCc4cnn(C5CCC(CC6CCCCC6)CC5)c4)c3C2=O)C(=O)N1` (stereo not drawn) [Compound 177, 4-(((1-(4-(Cyclohexylmethyl)cyclohexyl)-1H-pyrazol-4-yl)methyl)amino)-2-(2,6-dioxopiperidin-3-yl)isoindoline-1,3-dione], the GI50 was less than 100 nM.

Compound `CN(C(=O)N1CCC(n2cc(CNc3cccc4c3C(=O)N(C3CCC(=O)NC3=O)C4=O)cn2)CC1)C(C)(C)C` (stereo not drawn) [Compound 178, N-(tert-Butyl)-4-(4-(((2-(2,6-dioxopiperidin-3-yl)-1,3-dioxoisoindolin-4-yl)amino)methyl)-1H-pyrazol-1-yl)-N-methylpiperidine-1-carboxamide] has a GI50 of less than 100 nM.

`CC1(C(=O)N2CCC(n3cc(CNc4cccc5c4C(=O)N(C4CCC(=O)NC4=O)C5=O)c(N)n3)CC2)CCC1` (stereo not drawn) [Compound 179, 4-(((3-Amino-1-(1-(1-methylcyclobutane-1-carbonyl)piperidin-4-yl)-1H-pyrazol-4-yl)methyl)amino)-2-(2,6-dioxopiperidin-3-yl)isoindoline-1,3-dione] was tested, and the GI50 was less than 100 nM.

With `CC(C)Oc1cc(C2CC2)cc(-n2cc(CNc3cccc4c3C(=O)N(C3CCC(=O)NC3=O)C4=O)cn2)c1` (stereo not drawn) [Compound 180, 4-{[1-(3-Cyclopropyl-5-isopropoxy-phenyl)-1H-pyrazol-4-ylmethyl]-amino}-2-(2,6-dioxo-piperidin-3-yl)-isoindole-1,3-dione] the GI50 was less than 100 nM.

`O=C1CCC(N2C(=O)c3cccc(NCc4cnn(C5CN(c6ccccc6)C5)c4)c3C2=O)C(=O)N1` (stereo not drawn) [Compound 181, 2-(2,6-Dioxo-piperidin-3-yl)-4-{[1-(1-phenyl-azetidin-3-yl)-1H-pyrazol-4-ylmethyl]-amino}-isoindole-1,3-Dione] was tested, and the GI50 was less than 100 nM.

`CC(C)(C)OC(=O)CN1CC(n2cc(CNc3cccc4c3C(=O)N(C3CCC(=O)NC3=O)C4=O)cn2)C1` (stereo not drawn) [Compound 184, tert-butyl 2-(3-(4-(((2-(2,6-Dioxopiperidin-3-yl)-1,3-dioxoisoindolin-4-yl)amino)methyl)-1H-pyrazol-1-yl)azetidin-1-yl)acetate] showed a GI50 of less than 100 nM.

`CN(C)CCC(Nc1cccc2c1C(=O)N(C1CCC(=O)NC1=O)C2=O)c1cnn(C2CCN(C(=O)OC(C)(C)C)CC2)c1` (stereo not drawn) [Compound 187, tert-Butyl 4-(4-(3-(dimethylamino)-1-((2-(2,6-dioxopiperidin-3-yl)-1,3-dioxoisoindolin-4-yl)amino)propyl)-1H-pyrazol-1-yl)piperidine-1-carboxylate] was tested, and the GI50 was greater than 100 nM.

Compound `CC1(C(=O)N2CCC(n3ncc(CNc4cccc5c4C(=O)N(C4CCC(=O)NC4=O)C5=O)c3Br)CC2)CCC1` (stereo not drawn) [Compound 188, 4-(((5-Bromo-1-(1-(1-methylcyclobutane-1-carbonyl)piperidin-4-yl)-1H-pyrazol-4-yl)methyl)amino)-2-(2,6-dioxopiperidin-3-yl)isoindoline-1,3-dione] has a GI50 of less than 100 nM.

Compound `CC(C)(C)OC(=O)N1CCC(n2ncc(CNc3cccc4c3C(=O)N(C3CCC(=O)NC3=O)C4=O)c2CC(=O)C2CC2)CC1` (stereo not drawn) [Compound 189, tert-Butyl 4-[5-(2-cyclopropyl-2-oxo-ethyl)-4-[[[2-(2,6-dioxo-3-piperidyl)-1,3-dioxo-isoindolin-4-yl]amino]methyl]pyrazol-1-yl]piperidine-1-carboxylate] has a GI50 of less than 100 nM.

`CC1(C(=O)N2CCC(n3ncc(CNc4cccc5c4C(=O)N(C4CCC(=O)NC4=O)C5=O)c3C#CC3CC3)CC2)CCC1` (stereo not drawn) [Compound 190, 4-(((5-(Cyclopropylethynyl)-1-(1-(1-methylcyclobutane-1-carbonyl)piperidin-4-yl)-1H-pyrazol-4-yl)methyl)amino)-2-(2,6-dioxopiperidin-3-yl)isoindoline-1,3-dione] showed a GI50 of less than 100 nM.

`CC1(C(=O)N2CCC(n3cc(CNc4cccc5c4C(=O)N(C4CCC(=O)NC4=O)C5=O)c(Cl)n3)CC2)CCC1` (stereo not drawn) [Compound 191, 4-[[3-chloro-1-[1-(1-methylcyclobutanecarbonyl)-4-piperidyl]pyrazol-4-yl]methylamino]-2-(2,6-dioxo-3-piperidyl)isoindoline-1,3-dione] showed a GI50 of less than 1 nM.

`C#Cc1c(CNc2cccc3c2C(=O)N(C2CCC(=O)NC2=O)C3=O)cnn1C1CCN(C(=O)C2(C)CCC2)CC1` (stereo not drawn) [Compound 192, 2-(2,6-Dioxopiperidin-3-yl)-4-(((5-ethynyl-1-(1-(1-methylcyclobutane-1-carbonyl)piperidin-4-yl)-1H-pyrazol-4-yl)methyl)amino)isoindoline-1,3-dione] gave a GI50 of less than 100 nM.

`CC1(C(=O)N2CCC(n3ncc(CNc4cccc5c4C(=O)N(C4CCC(=O)NC4=O)C5=O)c3C#N)CC2)CCC1` (stereo not drawn) [Compound 194, 4-(((2-(2,6-Dioxopiperidin-3-yl)-1,3-dioxoisoindolin-4-yl)amino)methyl)-1-(1-(1-methylcyclobutane-1-carbonyl)piperidin-4-yl)-1H-pyrazole-5-carbonitrile] gave a GI50 of less than 100 nM.

In the case of `CC1(C)C[C@H](n2cc(CNc3cccc4c3C(=O)N(C3CCC(=O)NC3=O)C4=O)cn2)CCN1C(=O)C12C3C4C5C3C1C5C42` (stereo partly drawn) [Compound 196, 4-[[1-[(4R)-1-(Cubane-1-carbonyl)-2,2-dimethyl-4-piperidyl]pyrazol-4-yl]methylamino]-2-(2,6-dioxo-3-piperidyl)isoindoline-1,3-dione], the GI50 is reported as less than 1 nM.

In the case of `CC1(C)C[C@@H](n2cc(CNc3cccc4c3C(=O)N(C3CCC(=O)NC3=O)C4=O)cn2)CCN1C(=O)C12C3C4C5C3C1C5C42` (stereo partly drawn) [Compound 197, 4-[[1-[(4S)-1-(Cubane-1-carbonyl)-2,2-dimethyl-4-piperidyl]pyrazol-4-yl]methylamino]-2-(2,6-dioxo-3-piperidyl)isoindoline-1,3-dione], the GI50 is reported as less than 100 nM.

From US11753397B2, “Cereblon binders for the degradation of ikaros” (C4 Therapeutics, Inc., priority 2018, dated 2023)
